In patent US6696460B2, “Tetrahydropyridoethers” (Atlanta Pharma AG, priority 1998, dated 2004):

test system: pentagastrin-stimulated acid secretion of the perused rat stomach; assay: Secretion-inhibiting action on the perfused rat stomach (pentagastrin-stimulated, in vivo); settings: anesthetized CD rat, dose 3 μmol/kg i.v.
Source text: Testing of the Secretion-Inhibiting Action on the Perfused Rat Stomach
The abdomen of anesthetized rats (CD rat, female, 200-250 g; […] i.m. urethane) was opened after tracheotomy by means of a median upper abdominal incision and a PYC catheter was fixed transorally in the esophagus and another via the pylorus such that the ends of the tube just projected into the gastric lumen. The catheter leading from the pylorus led outwards into the right abdominal wall through a side opening.
After thorough rinsing (about 50-100 ml), warm physiological NaCl solution at 37° C. was continuously passed through the stomach (0.5 ml/min. pH 6.8-6.9; Braun-Unita I). The pH (pH meter 632, glass electrode EA 147; φ=5 mm, Metrohm) and, by titration with a freshly prepared 0.01 N NaOH solution to pH 7 (Dosimat 665 Metrohm), the secreted HCl were determined in the effluent in each case collected at an interval of 15 minutes.
The gastric secretion was stimulated by continuous infusion of 1 μg/kg (=1.65 ml/h) of I.v. pentagastrin (left femoral vein) about 30 min after the end of the operation (i.e after determination of 2 preliminary fractions). The substances to be tested were administered intravenously in 1 ml/kg liquid volumes 60 min after the start of the pentagastrin continuous infusion.
The body temperature of the animals was kept at a constant 37.8-38° C. by infrared irradiation and heat pads (automatic, stepless control by means of a rectal temperature sensor).

SMILES | Inhibition of acid secretion [%]
CO[C@@H]1c2ccn3c(C)c(C)nc3c2N[C@H](c2ccccc2)[C@H]1O [Example 1] | 100
CO[C@H]1c2ccn3c(C)c(C)nc3c2N[C@H](c2ccccc2)[C@H]1O [Example 2, (7S, 8R, 9R)-2,3-Dimethyl-8-hydroxy-7-methoxy-9-phenyl-7,8,9,10-tetrahydro-imidazo[1,2-h]-[1,7]naphythyridine] | 100
CCO[C@@H]1c2ccn3c(C)c(C)nc3c2N[C@H](c2ccccc2)[C@H]1O [Example 4, (7R, 8R, 9R)-2,3Dimethyl-7-ethoxy-8-hydroxy-phenyl-7,8,9,10-tetrahydro-imidazo[1,2-h]-[1,7]naphythryridine] | 100
COCCO[C@H]1c2ccn3c(C)c(C)nc3c2N[C@H](c2ccccc2)[C@H]1O [Example 6, (7S, 8R, 9R)-2,3-Dimethyl-8-hydroxy-7-(2-methoxyethoxy)-9-phenyl-7,8,9,10-tetrahydro-imiazo[1,2-h][1,7]naphthyridine] | 100
CO[C@@H]1[C@@H](c2ccccc2)Nc2c(ccn3c(C)c(C)nc23)[C@H]1OC [Example 8] | 100

same assay, conditions: iv, anesthetized CD rat, dose 3 μmol/kg i.v.

SMILES | inhibition at 3 µmol/kg [%]
CCO[C@@H]1c2ccn3c(C)c(C)nc3c2N[C@H](c2ccccc2)[C@H]1O [Example 3, (7R, 8R, 9R)-2,3-Dimethyl-7-ethoxy-8-hydroxy-9-phenyl-7,8,9,10-tetrahydro-imidazo[1,2-h]-[1,7]naphthyridine] | 100
COCCO[C@@H]1c2ccn3c(C)c(C)nc3c2N[C@H](c2ccccc2)[C@H]1O [Example 5, (7R, 8R, 9R)-2,3-Dimethyl-8-hydroxy-7-(2-methoxyethoxy)-9-phenyl-7,8,9,10-tetrahydro-imidazo[1,2-h][1,7]naphthyridine] | 100
Cc1nc2c3c(ccn2c1C)[C@H](OC(C)C)[C@H](O)[C@@H](c1ccccc1)N3 [Example 7, (7S, 8R, 9R)-2,3-Dimethyl-8-hydroxy-9-phenyl-7-(2-propoxy)-7,8,9,10-tetrahydro-imidazo[1,2-h][1,7]naphthyridine] | 100

test system: not given; assay: not given; settings: not given

melting point [°C] | SMILES
161 to 162 | CO[C@H]1c2ccn3c(C)c(C)nc3c2N[C@@H](c2ccccc2)[C@@H]1O [Example 1B, (7S, 8S, 9S)-2,3-Dimethyl-8-hydroxy-7-methoxy-9-phenyl-7,8,9,10-tetrahydro-imidazo[1,2-h]-[1,7]naphthyridine]
171 to 172 | CO[C@@H]1c2ccn3c(C)c(C)nc3c2N[C@@H](c2ccccc2)[C@@H]1O [Example 2B, (7R, 8S, 9S)-2,3-Dimethyl-8-hydroxy-7-methoxy-9-phenyl-7,8,9,10-tetrahydro-imidazo[1,2-h]-[1,7]naphthyridine]
188 to 190 | CCO[C@@H]1c2ccn3c(C)c(C)nc3c2N[C@H](c2ccccc2)[C@H]1O [Example 3, (7R, 8R, 9R)-2,3-Dimethyl-7-ethoxy-8-hydroxy-9-phenyl-7,8,9,10-tetrahydro-imidazo[1,2-h]-[1,7]naphthyridine]
168 to 169 | Cc1nc2c3c(ccn2c1C)[C@H](OC(C)C)[C@H](O)[C@@H](c1ccccc1)N3 [Example 7, (7S, 8R, 9R)-2,3-Dimethyl-8-hydroxy-9-phenyl-7-(2-propoxy)-7,8,9,10-tetrahydro-imidazo[1,2-h][1,7]naphthyridine]
